# According to ChEMBL document CHEMBL5126521, “Analgesic Opioid Ligand Discovery Based on Nonmorphinan Scaffolds Derived from Natural Sources” (J Med Chem, 2022):
# Square brackets hold non-standard residues; d marks the D form. Peptide text beside a SMILES is read from it.
# Key:
# Mu-type opioid receptor [1] = target: Mu-type opioid receptor (Mus musculus, UniProt P42866); experiment: Antagonist activity at mouse vas deferns MOP; type: functional
# Mu-type opioid receptor [2] = target: T1, Mu-type opioid receptor (Homo sapiens, UniProt P35372); experiment: Binding affinity to MOP (unknown origin)
# T1 sequence (P35372 whole entry): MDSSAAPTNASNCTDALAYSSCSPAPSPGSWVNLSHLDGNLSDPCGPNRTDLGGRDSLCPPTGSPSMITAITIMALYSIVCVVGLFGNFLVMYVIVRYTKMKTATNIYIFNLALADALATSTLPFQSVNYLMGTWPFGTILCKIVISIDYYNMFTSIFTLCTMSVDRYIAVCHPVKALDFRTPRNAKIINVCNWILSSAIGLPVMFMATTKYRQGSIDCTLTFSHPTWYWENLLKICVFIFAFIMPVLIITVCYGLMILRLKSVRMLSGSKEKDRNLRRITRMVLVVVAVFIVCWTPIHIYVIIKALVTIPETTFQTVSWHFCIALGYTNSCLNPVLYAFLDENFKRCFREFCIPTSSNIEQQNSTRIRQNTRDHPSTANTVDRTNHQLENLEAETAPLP
# Mu-type opioid receptor [3] = target: Mu-type opioid receptor (Cavia porcellus, UniProt P97266); experiment: Antagonist activity at guinea pig ileum MOP; type: functional, tissue-based
# Mu-type opioid receptor (Cavia porcellus, UniProt P97266), sequence (P97266 whole entry): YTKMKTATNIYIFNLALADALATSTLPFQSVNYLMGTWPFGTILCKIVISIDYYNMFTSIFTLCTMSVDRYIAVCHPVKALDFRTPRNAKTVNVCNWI
# [4] = target: T2, Delta-type opioid receptor (Homo sapiens, UniProt P41143); experiment: Binding affinity to DOP (unknown origin)
# T2 sequence (P41143 whole entry): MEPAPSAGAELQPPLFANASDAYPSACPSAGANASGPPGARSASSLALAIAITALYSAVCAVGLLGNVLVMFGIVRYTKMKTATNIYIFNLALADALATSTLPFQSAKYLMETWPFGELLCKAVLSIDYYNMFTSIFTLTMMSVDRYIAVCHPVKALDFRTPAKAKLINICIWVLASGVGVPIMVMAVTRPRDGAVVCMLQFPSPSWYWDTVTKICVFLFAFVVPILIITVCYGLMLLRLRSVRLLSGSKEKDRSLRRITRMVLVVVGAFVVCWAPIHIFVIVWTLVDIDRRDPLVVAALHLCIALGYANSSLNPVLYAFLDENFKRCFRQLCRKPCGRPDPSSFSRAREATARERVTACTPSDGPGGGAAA
# Rattus norvegicus = experiment: Antinociceptive activity in rat administered icv by tail pressure test relative to control; type: functional; design: concentration or dose not given beside the values
# [5] = Stability in mouse brain homogenate assessed as half life; type: ADME, tissue-based
# [6] = Stability in mouse serum assessed as half life; type: ADME, cell-free
# [7] = Stability in rat brain homogenate assessed as compound remaining measured after 90 mins relative to control; type: ADME, tissue-based; conditions: read-out: Stability
# Mus musculus [8] = experiment: Antinociceptive activity in mouse administered icv; type: functional
# Mu-type opioid receptor [9] = target: T1, Mu-type opioid receptor; experiment: Agonist activity at human recombinant MOP expressed in CHO cells by calcium mobilization assay; type: functional, cell-based
# Mu-type opioid receptor [10] = target: Mu-type opioid receptor (Rattus norvegicus, UniProt P33535); experiment: Inhibition of Wistar rat brain membrane MOP; type: cell membranes
# Mu-type opioid receptor (Rattus norvegicus, UniProt P33535), sequence (P33535 whole entry): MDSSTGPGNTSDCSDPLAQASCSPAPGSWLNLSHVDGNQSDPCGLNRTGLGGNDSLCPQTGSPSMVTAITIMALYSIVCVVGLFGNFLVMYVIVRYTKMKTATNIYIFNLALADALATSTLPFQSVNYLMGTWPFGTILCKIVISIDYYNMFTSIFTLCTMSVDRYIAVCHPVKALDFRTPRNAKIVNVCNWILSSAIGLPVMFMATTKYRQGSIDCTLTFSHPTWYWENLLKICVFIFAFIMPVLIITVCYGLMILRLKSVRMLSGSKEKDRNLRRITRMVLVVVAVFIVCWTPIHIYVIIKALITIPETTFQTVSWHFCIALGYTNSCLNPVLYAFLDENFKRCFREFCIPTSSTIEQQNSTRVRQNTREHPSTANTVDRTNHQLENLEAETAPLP
# Mus musculus [11] = experiment: Antinociceptive activity in Swiss albino mouse assessed tail flick response in warm water administered icv; type: functional
# [12] = target: Delta-type opioid receptor (Rattus norvegicus, UniProt P33533); experiment: Inhibition of Wistar rat brain membrane DOP; type: cell membranes
# Delta-type opioid receptor (Rattus norvegicus, UniProt P33533), sequence (P33533 whole entry): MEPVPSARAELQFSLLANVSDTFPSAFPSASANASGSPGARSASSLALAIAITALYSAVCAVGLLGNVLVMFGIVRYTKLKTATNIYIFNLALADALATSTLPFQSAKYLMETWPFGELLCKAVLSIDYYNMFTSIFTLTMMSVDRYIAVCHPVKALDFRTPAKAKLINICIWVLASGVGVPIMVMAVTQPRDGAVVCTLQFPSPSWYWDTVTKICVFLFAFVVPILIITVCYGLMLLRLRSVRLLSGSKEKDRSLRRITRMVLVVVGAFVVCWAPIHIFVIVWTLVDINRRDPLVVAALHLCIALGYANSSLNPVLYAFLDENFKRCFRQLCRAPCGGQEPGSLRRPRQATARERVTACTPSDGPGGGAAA
# Mu-type opioid receptor [13] = target: T1, Mu-type opioid receptor; experiment: Agonist activity at MOP (unknown origin) stably expressed in HEK293 cells assessed as forskolin stimulated cAMP accumulation incubated for 30 mins by radioactivity based scintillation counter analysis; type: functional, cell-based
# [14] = target: T2, Delta-type opioid receptor; experiment: Displacement of [3H]DPDPE from DOP (unknown origin) stably expressed in HEK293 cells by liquid scintillation counter analysis; type: cell-based
# Mu-type opioid receptor [15] = target: T1, Mu-type opioid receptor; experiment: Displacement of [3H]DAMGO from MOP (unknown origin) stably expressed in HEK293 cells by liquid scintillation counter analysis; type: cell-based
# Mu-type opioid receptor [16] = target: T1, Mu-type opioid receptor; experiment: Agonist activity at MOP (unknown origin) stably expressed in HEK293 cells assessed as forskolin stimulated cAMP accumulation incubated for 30 mins by radioactivity based scintillation counter analysis relative to control; type: functional, cell-based; conditions: filed as agonist
# Mu-type opioid receptor (Mus musculus, UniProt P42866), sequence (P42866 whole entry): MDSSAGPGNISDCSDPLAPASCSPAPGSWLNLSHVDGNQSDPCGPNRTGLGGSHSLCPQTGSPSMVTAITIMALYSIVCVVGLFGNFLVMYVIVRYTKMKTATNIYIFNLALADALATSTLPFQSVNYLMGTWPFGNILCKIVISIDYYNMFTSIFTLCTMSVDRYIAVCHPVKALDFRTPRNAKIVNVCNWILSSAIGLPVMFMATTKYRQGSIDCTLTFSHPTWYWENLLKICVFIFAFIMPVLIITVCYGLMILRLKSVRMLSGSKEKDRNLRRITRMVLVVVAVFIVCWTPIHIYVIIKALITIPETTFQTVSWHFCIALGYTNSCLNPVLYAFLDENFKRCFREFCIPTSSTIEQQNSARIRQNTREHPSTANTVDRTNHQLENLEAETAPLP
compound,measurement,setting,value
C[C@@H](NC(=O)[C@@H](N)Cc1ccc(O)cc1)C(=O)N[C@@H](Cc1ccccc1)C(=O)NCC(=O)N[C@@H](Cc1ccc(O)cc1)C(=O)N1CCC[C@H]1C(N)=O,IC50,Mu-type opioid receptor [1],43.2 nM
same,Ki,Mu-type opioid receptor [2],1.6 nM
same,IC50,Mu-type opioid receptor [3],2.7 nM
same,Ki,[4],320 nM
same,Activity,Rattus norvegicus,25%
C[C@@H](NC(=O)[C@@H](N)Cc1ccc(O)cc1)C(=O)N[C@@H](Cc1ccccc1)C(=O)NCC(=O)O (H-Y[dA]FG-OH),IC50,Mu-type opioid receptor [1],263 nM
same,Ki,Mu-type opioid receptor [2],11.9 nM
same,IC50,Mu-type opioid receptor [3],34.5 nM
same,Ki,[4],1800 nM
same,Activity,Rattus norvegicus,25%
Cc1cc(O)cc(C)c1C[C@H](N)C(=O)O,half-life,[5],≥ 300 min
same,half-life,[6],≥ 300 min
NC(=O)[C@@H]1CC(=O)NCCCC[C@@H](NC(=O)[C@@H](N)Cc2ccc(O)cc2)C(=O)N[C@@H](c2ccccc2)C(=O)N[C@@H](c2ccc(C(F)(F)F)cc2)C(=O)N1,remaining at […],[7],93%
N=C(N)NCCC[C@@H](NC(=O)[C@@H](N)Cc1ccc(O)cc1)C(=O)N[C@@H](Cc1ccccc1)C(=O)NCC(=O)N[C@@H](Cc1ccc(O)cc1)C(N)=O,ED50,Mus musculus [8],20.2 pmol
same,IC50,Mu-type opioid receptor [3],160 nM
C[C@@H](NC(=O)[C@@H](N)Cc1ccc(O)cc1)C(=O)N[C@@H](Cc1ccccc1)C(=O)NCC(=O)N[C@@H](Cc1ccc(O)cc1)C(N)=O (H-Y[dA]FGY-NH2),IC50,Mu-type opioid receptor [1],23.8 nM
same,Ki,Mu-type opioid receptor [2],0.98 nM
same,IC50,Mu-type opioid receptor [3],2.9 nM
same,Ki,[4],88 nM
same,Activity,Rattus norvegicus,27%
Cc1cccc([C@@H]2NC(=O)[C@H](c3ccccc3)NC(=O)[C@H](NC(=O)[C@@H](N)Cc3c(C)cc(O)cc3C)CCCCNC(=O)C[C@@H](C(N)=O)NC2=O)c1,EC50,Mu-type opioid receptor [9],1.1 nM
same,IC50,Mu-type opioid receptor [10],0.08 nM
same,ED50,Mus musculus [11],0.01 µg
same,remaining at […],[7],85%
same,IC50,[12],18.6 nM
Cc1ccc([C@@H]2NC(=O)[C@H](NC(=O)[C@@H](N)Cc3c(C)cc(O)cc3C)CCCCNC(=O)C[C@@H](C(N)=O)NC(=O)[C@H](c3ccccc3)NC2=O)cc1,EC50,Mu-type opioid receptor [9],2.82 nM
same,IC50,Mu-type opioid receptor [10],1.43 nM
same,ED50,Mus musculus [11],0.39 µg
same,remaining at […],[7],85%
same,IC50,[12],156 nM
N=C(N)NCCC[C@@H](NC(=O)[C@@H](N)Cc1ccc(O)cc1)C(=O)N[C@@H](Cc1ccccc1)C(=O)NCC(=O)N[C@@H](Cc1ccc(O)cc1)C(=O)N1CCC[C@H]1C(N)=O,ED50,Mus musculus [8],12.5 pmol
same,IC50,Mu-type opioid receptor [3],190 nM
NC(=O)[C@@H]1CC(=O)NCCCC[C@@H](NC(=O)[C@@H](N)Cc2ccc(O)cc2)C(=O)N[C@@H](c2ccc(F)cc2)C(=O)N[C@@H](c2ccccc2)C(=O)N1,remaining at […],[7],93%
Cc1cc(O)cc(C)c1C[C@H](N)C(=O)N[C@@H]1CCCCNC(=O)C[C@@H](C(N)=O)NC(=O)[C@H](c2ccccc2)NC(=O)[C@H](c2ccc(F)cc2)NC1=O,remaining at […],[7],93%
Cc1cc(O)cc(C)c1C[C@H](N)C(=O)N[C@@H]1CCCCNC(=O)C[C@@H](C(N)=O)NC(=O)[C@H](c2ccc(C(F)(F)F)cc2)NC(=O)[C@H](c2ccccc2)NC1=O,remaining at […],[7],93%
C=C(C(=O)O)[C@@H](N)c1ccco1,half-life,[5],≥ 300 min
same,half-life,[6],≥ 300 min
C=C(C(N)=O)[C@@H](NC(=O)[C@H](Cc1c[nH]c2ccccc12)NC(=O)[C@@H](C)N(C)C(=O)[C@@H](N)Cc1c(C)cc(O)cc1C)c1ccccc1,EC50,Mu-type opioid receptor [13],4 pM
same,Ki,[14],37.2 nM
same,half-life,[5],≥ 300 min
same,Ki,Mu-type opioid receptor [15],0.032 nM
same,half-life,[6],≥ 300 min
same,Emax,Mu-type opioid receptor [16],98.1%
Cc1cc(O)cc(C)c1C[C@H](N)C(=O)N[C@@H]1CCCCNC(=O)C[C@@H](C(N)=O)NC(=O)[C@H](c2ccc(F)cc2F)NC(=O)[C@H](c2ccccc2)NC1=O,remaining at […],[7],93%
C=C(C(N)=O)[C@@H](NC(=O)[C@H](Cc1ccccc1)NC(=O)[C@@H](C)N(C)C(=O)[C@@H](N)Cc1c(C)cc(O)cc1C)c1ccccc1,EC50,Mu-type opioid receptor [13],0.515 pM
same,Ki,[14],55.7 nM
same,half-life,[5],≥ 300 min
same,Ki,Mu-type opioid receptor [15],0.0511 nM
same,half-life,[6],≥ 300 min
same,Emax,Mu-type opioid receptor [16],95.1%
C[C@@H](NC(=O)[C@@H](N)Cc1ccc(O)cc1)C(=O)N[C@@H](Cc1ccccc1)C(=O)NCC(=O)N[C@@H](Cc1ccc(O)cc1)C(=O)N1CCC[C@H]1C(=O)N[C@@H](CO)C(N)=O,IC50,Mu-type opioid receptor [1],> 15000 nM
same,IC50,Mu-type opioid receptor [3],> 4000 nM
N=C(N)NCCC[C@@H](NC(=O)[C@@H](N)Cc1ccc(O)cc1)C(N)=O,ED50,Mus musculus [8],47000 pmol
same,IC50,Mu-type opioid receptor [3],44000 nM
C=C(C(N)=O)[C@@H](NC(=O)[C@H](Cc1ccccc1)NC(=O)[C@@H](C)N(C)C(=O)[C@@H](N)Cc1c(C)cc(O)cc1C)c1ccco1,EC50,Mu-type opioid receptor [13],2.01 pM
same,Ki,[14],47.2 nM
same,half-life,[5],≥ 300 min
same,Ki,Mu-type opioid receptor [15],0.014 nM
same,half-life,[6],≥ 300 min
same,Emax,Mu-type opioid receptor [16],96.9%
C=C(C(=O)O)[C@@H](N)c1ccccc1,half-life,[5],≥ 300 min
same,half-life,[6],≥ 300 min
